The target in the experiment is T1, human GPR40 (Homo sapiens, UniProt O14842).
T1 construct: expressed in transfected cells; host or cells: CHO-K1
T1 sequence (O14842 whole entry): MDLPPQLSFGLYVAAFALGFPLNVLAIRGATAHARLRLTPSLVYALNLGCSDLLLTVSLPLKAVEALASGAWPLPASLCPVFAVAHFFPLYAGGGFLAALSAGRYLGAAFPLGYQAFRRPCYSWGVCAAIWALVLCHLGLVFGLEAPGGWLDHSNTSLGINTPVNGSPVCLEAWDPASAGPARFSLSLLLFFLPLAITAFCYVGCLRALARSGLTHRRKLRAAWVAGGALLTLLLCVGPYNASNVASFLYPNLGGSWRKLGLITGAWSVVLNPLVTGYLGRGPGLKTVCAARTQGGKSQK
Put plainly: Induction of Ca2+ (calcium flux assay) using human GPR40 expression cell line. The note with it: read-out: EC0.5. The experiment is classed as cell-based. An outline of the steps: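 Read-out is intracellular Ca2+ flux on FlexStation after test compounds (DMSO stocks diluted 200-fold in assay buffer) were added to dye-loaded human GPR40/CHO-K1 cells. Cells had been cultured 24 h, then incubated 1 h at 37° C with Calcium 5 dye, HBSS-HEPES pH 7.4; EC0.5 from concentration plot.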
(A change in cytosolic calcium serves as a functional read-out for many receptors and channels.)
On to `O=C(O)CC1CCOc2cc(OCc3ccc4c(cnn4Cc4ccccc4)c3)ccc21` (stereo not drawn) [Example 120, [7-(1-benzyl-1H-indazol-5-ylmethoxy)-chroman-4-yl]-acetic acid], for which the EC50 was determined as 0.04 µM.

For the compound `O=C(O)CC1COc2cc(OCc3ccc4ccn(Cc5ccccc5)c4n3)ccc21` (stereo not drawn) [Example 121, [6-(1-benzyl-1H-pyrrolo[2,3-b]pyridin-6-ylmethoxy)-2,3-dihydro-benzofuran-3-yl]-acetic acid], the EC50 was determined as 0.3 µM.

For the compound `CC#C[C@@H](CC(=O)O)c1ccc(OCc2cc3c(cnn3Cc3ccccc3)cc2F)cc1` [Example 122, (S)-3-[4-(1-benzyl-5-fluoro-1H-indazol-6-ylmethoxy)-phenyl]-hex-4-ynoic acid], the EC50 lay within 0.001 to 0.05 µM.

With `CC#C[C@@H](CC(=O)O)c1ccc(OCc2ccc3c(ccn3Cc3ccccc3)c2)cc1` [Example 123, (S)-3-[4-(1-benzyl-1H-indol-5-ylmethoxy)-phenyl]-hex-4-ynoic acid], the EC50 lay within 0.001 to 0.05 µM.

As to `CC#C[C@@H](CC(=O)O)c1ccc(OCc2ccc3c(c2)nnn3Cc2ccccc2)cc1` [Example 124, (S)-3-[4-(1-benzyl-1H-benzotriazol-5-ylmethoxy)-phenyl]-hex-4-ynoic acid], the EC50 came to 0.05 µM.

Regarding `CC#C[C@@H](CC(=O)O)c1ccc(OCc2ccc3c(c2)ncn3Cc2ccccc2)cc1` [Example 125, (S)-3-[4-(1-benzyl-1H-benzoimidazol-5-ylmethoxy)-phenyl]-hex-4-ynoic acid], the EC50 amounted to 0.02 µM.

As for `CC#C[C@@H](CC(=O)O)c1ccc(OCc2cc(C)c3c(cnn3Cc3ccccc3)c2)cc1` [Example 126, (S)-3-[4-(1-benzyl-7-methyl-1H-indazol-5-ylmethoxy)-phenyl]-hex-4-ynoic acid], the EC50 lay within 0.001 to 0.05 µM.

With `CC#C[C@@H](CC(=O)O)c1ccc(OCc2cc(C)c3nn(Cc4ccccc4)cc3c2)cc1` [Example 127, (S)-3-[4-(2-benzyl-7-methyl-2H-indazol-5-ylmethoxy)-phenyl]-hex-4-ynoic acid], the EC50 lay in the range of 0.001 to 0.05 µM.

Regarding `Cc1cc(COc2ccc3c(c2)OCC3CC(=O)O)cc2cnn(Cc3ccccc3)c12` (stereo not drawn) [Example 128, [6-(1-benzyl-7-methyl-1H-indazol-5-ylmethoxy)-2,3-dihydro-benzofuran-3-yl]-acetic acid], the EC50 fell in the range of 0.05 to 0.5 µM.

Turning to `Cc1cc(COc2ccc3c(c2)OCCC3CC(=O)O)cc2cnn(Cc3ccccc3)c12` (stereo not drawn) [Example 129, [7-(1-benzyl-7-methyl-1H-indazol-5-ylmethoxy)-chroman-4-yl]-acetic acid], the EC50 was found to be 0.08 µM.

Take `CC#C[C@@H](CC(=O)O)c1ccc(OCc2cc(C)c3c(cnn3CC(C)C)c2)cc1` [Example 130, (S)-3-[4-(1-isobutyl-7-methyl-1H-indazol-5-ylmethoxy)-phenyl]-hex-4-ynoic acid]: the EC50 fell in the range of 0.001 to 0.05 µM.

For the compound `Cc1cc(COc2ccc3c(c2)OCCC3CC(=O)O)cc2cnn(CC(C)C)c12` (stereo not drawn) [Example 131, [7-(1-isobutyl-7-methyl-1H-indazol-5-ylmethoxy)-chroman-4-yl]-acetic acid], the EC50 fell in the range of 0.05 to 0.5 µM.

In the case of `CC#C[C@@H](CC(=O)O)c1ccc(OCc2ccc3c(cnn3CC(C)C)c2)cc1` [Example 132, (S)-3-[4-(1-isobutyl-1H-indazol-5-ylmethoxy)-phenyl]-hex-4-ynoic acid], the EC50 is 0.001 to 0.05 µM.

With `CC(C)Cn1ncc2cc(COc3ccc4c(c3)OCCC4CC(=O)O)ccc21` (stereo not drawn) [Example 133, [7-(1-isobutyl-1H-indazol-5-ylmethoxy)-chroman-4-yl]-acetic acid], the EC50 was found to be 0.4 µM.

Take `CC#C[C@@H](CC(=O)O)c1ccc(OCc2ccc3c(cnn3CCc3ccccc3)c2)cc1` [Example 134, (S)-3-[4-(1-phenethyl-1H-indazol-5-ylmethoxy)-phenyl]-hex-4-ynoic acid]: the EC50 is 0.004 µM.

Consider `O=C(O)CC1CCOc2cc(OCc3ccc4c(cnn4CCc4ccccc4)c3)ccc21` (stereo not drawn) [Example 135, [7-(1-phenethyl-1H-indazol-5-ylmethoxy)-chroman-4-yl]-acetic acid], for which the EC50 came out at 0.2 µM.

Turning to `CC#C[C@@H](CC(=O)O)c1ccc(OCc2ccc3c(cnn3CCC(C)C)c2)cc1` [Example 136, (S)-3-{4-[1-(3-methyl-butyl)-1H-indazol-5-ylmethoxy]-phenyl}-hex-4-ynoic acid], the EC50 was in the range of 0.001 to 0.05 µM.

As to `CC(C)CCn1ncc2cc(COc3ccc4c(c3)OCCC4CC(=O)O)ccc21` (stereo not drawn) [Example 137, {7-[1-(3-methyl-butyl)-1H-indazol-5-ylmethoxy]-chroman-4-yl}-acetic acid], the EC50 fell in the range of 0.05 to 0.5 µM.

`CC#C[C@@H](CC(=O)O)c1ccc(OCc2ccc3c(cnn3CC3CCCCC3)c2)cc1` [Example 138, (S)-3-[4-(1-cyclohexylmethyl-1H-indazol-5-ylmethoxy)-phenyl]-hex-4-ynoic acid]: the EC50 amounted to 0.01 µM.

Take `O=C(O)CC1CCOc2cc(OCc3ccc4c(cnn4CC4CCCCC4)c3)ccc21` (stereo not drawn) [Example 139, [7-(1-cyclohexyl methyl-1H-indazol-5-ylmethoxy)-chroman-4-yl]-acetic acid]: the EC50 worked out at 0.3 µM.

Consider `CC#C[C@@H](CC(=O)O)c1ccc(OCc2cc(C)c3nn(CC(C)C)cc3c2)cc1` [Example 140, (S)-3-[4-(2-isobutyl-7-methyl-2H-indazol-5-ylmethoxy)-phenyl]-hex-4-ynoic acid], for which the EC50 is 0.004 µM.

Regarding `CC#C[C@@H](CC(=O)O)c1ccc(OCc2ccc3c(cnn3Cc3ccccn3)c2)cc1` [Example 141, (S)-3-[4-(1-pyridine-2-ylmethyl-1H-indazol-5-ylmethoxy)-phenyl]-hex-4-ynoic acid], the EC50 was 0.001 to 0.05 µM.

Regarding `O=C(O)CC1CCOc2cc(OCc3ccc4c(cnn4Cc4ccccn4)c3)ccc21` (stereo not drawn) [Example 142, [7-(1-pyridine-2-ylmethyl-1H-indazol-5-ylmethoxy)-chroman-4-yl]-acetic acid], the EC50 was not below 0.5 µM.

`CC#C[C@@H](CC(=O)O)c1ccc(OCc2cnc3c(ccn3Cc3ccccc3)c2)cc1` [Example 143, (S)-3-[4-(1-benzyl-1H-pyrrolo[2,3-b]pyridin-5-ylmethoxy)-phenyl]-hex-4-ynoic acid]: the EC50 fell in the range of 0.001 to 0.05 µM.

On to `CC#C[C@@H](CC(=O)O)c1ccc(OCc2cnc3c(ccn3CC(C)C)c2)cc1` [Example 144, (S)-3-[4-(1-isobutyl-1H-pyrrolo[2,3-b]pyridin-5-ylmethoxy)-phenyl]-hex-4-ynoic acid], for which the EC50 was in the range of 0.001 to 0.05 µM.

On to `Cc1c(COc2ccc3c(c2)OCCC3CC(=O)O)ccc2ccn(Cc3ccccc3)c12` (stereo not drawn) [Example 145, [7-(1-benzyl-7-methyl-1H-indol-6-ylmethoxy)-chroman-4-yl]-acetic acid], for which the EC50 came to 0.04 µM.

`CC#C[C@@H](CC(=O)O)c1ccc(OCc2ccc3c(cnn3Cc3cccnc3)c2)cc1` [Example 147, (S)-3-[4-(1-pyridin-3-ylmethyl-1H-indazol-5-ylmethoxy)-phenyl]-hex-4-ynoic acid]: the EC50 is 0.001 to 0.05 µM.

In the case of `O=C(O)CC1CCOc2cc(OCc3ccc4c(cnn4Cc4cccnc4)c3)ccc21` (stereo not drawn) [Example 148, [7-(1-pyridin-3-ylmethyl-1H-indazol-5-ylmethoxy)-chroman-4-yl]-acetic acid], the EC50 is not below 0.5 µM.

As for `CCOCCn1ncc2cc(COc3ccc4c(c3)OCCC4CC(=O)O)ccc21` (stereo not drawn) [Example 149, {7-[1-(2-ethoxy-ethyl)-1H-indazol-5-ylmethoxy]-chroman-4-yl}-acetic acid], the EC50 was not below 0.5 µM.

On to `CC#C[C@@H](CC(=O)O)c1ccc(OCc2cc3c(cnn3CC(C)C)cc2F)cc1` [Example 150, (S)-3-[4-(5-fluoro-1-isobutyl-1H-indazol-6-ylmethoxy)-phenyl]-hex-4-ynoic acid], for which the EC50 came out at 0.003 µM.

On to `CC#C[C@@H](CC(=O)O)c1ccc(OCc2ccc3c(cnn3CC3CCCO3)c2)cc1` (stereo partly drawn) [Example 151, (S)-3-{4-[1-(tetrahydrofuran-2-ylmethyl)-1H-indazol-5-ylmethoxy]-phenyl}-hex-4-ynoic acid], for which the EC50 was in the range of 0.001 to 0.05 µM.

For `CC#C[C@@H](CC(=O)O)c1ccc(OCc2ccc3c(cnn3CCCS(C)(=O)=O)c2)cc1` [Example 152, (S)-3-{4-[1-(3-methanesulfonyl-propyl)-1H-indazol-5-ylmethoxy]-phenyl}-hex-4-ynoic acid], the EC50 is not below 0.5 µM.

As for `CC#C[C@@H](CC(=O)O)c1ccc(OCc2ccc3c(cnn3CC3CCOC3)c2)cc1` (stereo partly drawn) [Example 153, (S)-3-{4-[1-(tetrahydrofuran-3-ylmethyl)-1H-indazol-5-ylmethoxy]-phenyl}-hex-4-ynoic acid], the EC50 lay within 0.001 to 0.05 µM.

For `CC#C[C@@H](CC(=O)O)c1ccc(OCc2ccc3nn(CC4CCOC4)cc3c2)cc1` (stereo partly drawn) [Example 154, (S)-3-{4-[2-(tetrahydrofuran-3-ylmethyl)-2H-indazol-5-ylmethoxy]-phenyl}-hex-4-ynoic acid], the EC50 was not below 0.5 µM.

As for `COC(CC(=O)O)c1ccc(OCc2ccc3c(cnn3Cc3ccccc3)c2)cc1` (stereo not drawn) [Example 155, 3-[4-(1-benzyl-1H-indazol-5-ylmethoxy)-phenyl]-3-methoxy-propanoic acid], the EC50 was in the range of 0.05 to 0.5 µM.

Turning to `CC#C[C@@H](CC(=O)O)c1ccc(OCc2cnc3c(cnn3CC(C)C)c2)cc1` [Example 156, (S)-3-[4-(1-isobutyl-1H-pyrazolo[3,4-b]pyridin-5-ylmethoxy)-phenyl]-hex-4-ynoic acid], the EC50 is 0.02 µM.

Consider `CC#C[C@@H](CC(=O)O)c1ccc(OCc2ccc3c(cnn3CCOCC)c2)cc1` [Example 157, (S)-3-{4-[1-(2-ethoxy-ethyl)-1H-indazol-5-ylmethoxy]-phenyl}-hex-4-ynoic acid], for which the EC50 lay in the range of 0.001 to 0.05 µM.

In the case of `CC(CC(=O)O)c1ccc(OCc2ccc3c(cnn3Cc3ccccc3)c2)cc1` (stereo not drawn) [Example 158, 3-[4-(1-benzyl-1H-indazol-5-ylmethoxy)-phenyl]-butyric acid], the EC50 was found to be 0.05 µM.

On to `CCC(CC(=O)O)c1ccc(OCc2ccc3c(cnn3Cc3ccccc3)c2)cc1` (stereo not drawn) [Example 159, 3-[4-(1-benzyl-1H-indazol-5-ylmethoxy)-phenyl]-pentanoic acid], for which the EC50 came to 0.1 µM.

For the origin of these results see patent US9988379B2, “GPR40 receptor agonist, methods of preparing the same, and pharmaceutical compositions containing the same as an active agent” (LG CHEM, LTD., priority 2012, dated 2018).
